Experiments:
human 5-LOX = target: T1, human 5-LOX (Homo sapiens, UniProt P09917); test: 5-LOX enzyme activity, fluorescence method (5-HPETE, H2DCFDA); format: biochemical; conditions: read-out: 5-LO (IC50)
T1 construct: purchased Cayman 60402; host or cells: insect cells (lysate)
T1 sequence (P09917 1-674): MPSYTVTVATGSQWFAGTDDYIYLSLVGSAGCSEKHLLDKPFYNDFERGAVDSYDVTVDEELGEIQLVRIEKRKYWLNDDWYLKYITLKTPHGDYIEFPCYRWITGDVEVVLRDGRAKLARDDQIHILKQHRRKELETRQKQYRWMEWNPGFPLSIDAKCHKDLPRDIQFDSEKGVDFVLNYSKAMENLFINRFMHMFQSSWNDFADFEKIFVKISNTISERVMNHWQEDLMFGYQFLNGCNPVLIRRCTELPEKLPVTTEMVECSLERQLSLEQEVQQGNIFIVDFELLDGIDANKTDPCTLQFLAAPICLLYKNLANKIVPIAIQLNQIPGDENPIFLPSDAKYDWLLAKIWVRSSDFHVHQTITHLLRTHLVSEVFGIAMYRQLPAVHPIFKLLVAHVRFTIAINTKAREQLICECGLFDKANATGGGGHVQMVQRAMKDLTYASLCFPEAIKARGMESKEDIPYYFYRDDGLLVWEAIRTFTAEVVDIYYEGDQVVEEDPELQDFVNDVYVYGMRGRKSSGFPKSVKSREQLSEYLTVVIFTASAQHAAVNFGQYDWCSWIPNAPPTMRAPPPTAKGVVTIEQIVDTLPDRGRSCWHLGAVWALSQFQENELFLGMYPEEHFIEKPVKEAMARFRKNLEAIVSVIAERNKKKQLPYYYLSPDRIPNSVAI
Summary of the method: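 Fluorescence-based read-out, run entirely at room temperature. Enzyme mixture was exposed to a dose range of compound from 0.5 nM to 10 uM for 5 min before ATP and arachidonic acid were added to final levels of 100 uM and 3 uM.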

[1] = tested on: Rat basophilic leukemia (RBL) cells; test: LTB4 secretion assay in RBL (rat basophilic leukemia cells); format: cell-based; conditions: Rattus norvegicus, RBL
Summary of the method: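 LTB4 released into supernatant was measured by EIA after 10 min at 37 °C with arachidonic acid (2.5 uM final) and calcium ionophore A23187 (5 uM final). Before stimulation, cells plated 2×10^4/well overnight received compound doses (5 nM to 100 uM) for 15 min in 0.5% FBS medium.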

Rat whole blood (RWB) = test: LTB4 secretion assay in RWB (rat whole blood); format: cell-based; conditions: Rattus norvegicus
Protocol: Rat blood was drawn from caudal vena cava from male Sprague Dawley rat (6-9 weeks old) in vacuette coated with sodium heparin (Greiner bio-one, Cat #455051). The blood was pooled and diluted with RPMI (WelGENE, Cat #LM 011-05) to 1:1. The diluted blood was aliquoted into 96 well plate (200 ul per well) and compounds were added in dose response to a desired concentration ranging from 2.5 nM to 50 uM. After 15 min of pre-incubation at 37° C., calcium ionophore (A23187) was added to the final concentration of 10 uM. After 10 min of further incubation at 37° C., the LTB4 production was stopped by diluting the reaction mixture with ice cold PBS (1:4 dilutions). Cells were removed by centrifugation at 1000×g, 4° C. for 10 min, and the supernatant was transferred and then the quantification of LTB4 was done with Leukotriene B4 EIA kit (Cayman, Cat #520111) as instructed.

Structure (SMILES): CCn1c(NCc2ccc(Oc3ncc(C(F)(F)F)cn3)cc2)nc2ccc(Nc3cc(C)[nH]n3)cc21 [Compound 531]
- IC50 (human 5-LOX): < 1 µM
- EC50 [1]: < 10 µM
- EC50 (Rat whole blood (RWB)): < 10 µM

Structure (SMILES): CN(C)c1nc2cc(N)ccc2n1CCOc1ccc(Cl)cc1 [Compound 38]
- IC50 (human 5-LOX): < 1 µM
- EC50 [1]: < 10 µM
- EC50 (Rat whole blood (RWB)): > 20 µM

Structure (SMILES): CC(Nc1nc2cc(N)ccc2[nH]1)c1ccc(Cl)cc1Cl (stereo not drawn) [Compound 74]
- IC50 (human 5-LOX): < 1 µM
- EC50 [1]: < 10 µM
- EC50 (Rat whole blood (RWB)): 10 to 20 µM

Structure (SMILES): Cc1[nH]nc(Nc2ccc3nc(NCc4ccc(Oc5ncc(Cl)cn5)cc4)n(C)c3c2)c1C [Compound 474]
- IC50 (human 5-LOX): < 1 µM
- EC50 [1]: < 10 µM
- EC50 (Rat whole blood (RWB)): < 10 µM

Structure (SMILES): CC(Nc1nc2ccc(NC3COC3)cc2n1C)c1ccc(Oc2ccc(Cl)cn2)cc1 (stereo not drawn) [Compound 256]
- IC50 (human 5-LOX): < 1 µM
- EC50 [1]: 10 to 20 µM
- EC50 (Rat whole blood (RWB)): < 10 µM

Structure (SMILES): Cn1c(NCc2ccc(Oc3nc4ccc(N)cc4n3C)cc2)nc2ccc(NC3COC3)cc21 [Compound 409]
- IC50 (human 5-LOX): < 1 µM
- EC50 [1]: > 20 µM
- EC50 (Rat whole blood (RWB)): > 20 µM

Structure (SMILES): CCC(Nc1nc2ccc(Nc3cc(C(F)(F)F)n(C)n3)cc2n1C)c1ccc(Oc2ncc(C(F)(F)F)cn2)cc1F (stereo not drawn) [Compound 528]
- IC50 (human 5-LOX): > 10 µM
- EC50 [1]: < 10 µM
- EC50 (Rat whole blood (RWB)): < 10 µM

Structure (SMILES): Cn1c(NCc2ccc(Oc3ncc(F)cn3)cc2)nc2ccc(NC3COC3)cc21 [Compound 337]
- IC50 (human 5-LOX): < 1 µM
- EC50 [1]: 10 to 20 µM
- EC50 (Rat whole blood (RWB)): 10 to 20 µM

Structure (SMILES): Cc1cccnc1Nc1ccc2nc(NCc3ccc(Oc4ncc(Cl)cn4)cc3)n(C)c2c1 [Compound 464]
- IC50 (human 5-LOX): 1 to 10 µM
- EC50 [1]: < 10 µM
- EC50 (Rat whole blood (RWB)): < 10 µM

Structure (SMILES): c1ccc(Oc2ccc(CNc3nc4cc(NC5COC5)ccc4[nH]3)cc2)cc1 [Compound 87]
- IC50 (human 5-LOX): < 1 µM
- EC50 [1]: < 10 µM
- EC50 (Rat whole blood (RWB)): < 10 µM

Structure (SMILES): CCn1c(NCc2ccc(Oc3ncc(OC(F)(F)F)cn3)cc2)nc2ccc(Nc3cc(C(F)(F)F)n(C)n3)cc21 [Compound 545]
- IC50 (human 5-LOX): 1 to 10 µM
- EC50 [1]: < 10 µM
- EC50 (Rat whole blood (RWB)): < 10 µM

Structure (SMILES): Nc1ccc2[nH]c(NCCc3ccc(Cl)cc3Cl)nc2c1 [Compound 73]
- IC50 (human 5-LOX): < 1 µM
- EC50 [1]: < 10 µM
- EC50 (Rat whole blood (RWB)): 10 to 20 µM

Structure (SMILES): CCn1c(NCc2ccc(Oc3ncc(Cl)cn3)cc2F)nc2ccc(Nc3cc(C(F)(F)F)n(C)n3)cc21 [Compound 506]
- IC50 (human 5-LOX): > 10 µM
- EC50 [1]: < 10 µM
- EC50 (Rat whole blood (RWB)): < 10 µM

Structure (SMILES): Nc1ccc2[nH]c(NCc3ccc(Oc4ccc(Cl)cn4)cc3)nc2c1 [Compound 138]
- IC50 (human 5-LOX): < 1 µM
- EC50 [1]: < 10 µM
- EC50 (Rat whole blood (RWB)): < 10 µM

Structure (SMILES): Cc1cc(Oc2ncc(Cl)cn2)cc(C)c1CNc1nc2ccc(NC3COC3)cc2n1C [Compound 417]
- IC50 (human 5-LOX): < 1 µM
- EC50 [1]: > 20 µM
- EC50 (Rat whole blood (RWB)): > 20 µM

Structure (SMILES): Nc1ccc2nc(N)n(Cc3ccc(Oc4ccc(Cl)cc4)cn3)c2c1 [Compound 239]
- IC50 (human 5-LOX): < 1 µM
- EC50 [1]: < 10 µM
- EC50 (Rat whole blood (RWB)): < 10 µM

Structure (SMILES): Cc1csc(Nc2ccc3nc(NCc4ccc(Oc5ncc(Cl)cn5)cc4)n(C)c3c2)n1 [Compound 501]
- IC50 (human 5-LOX): < 1 µM
- EC50 [1]: < 10 µM
- EC50 (Rat whole blood (RWB)): < 10 µM

Structure (SMILES): Cn1c(NCc2ccc(Nc3ncc(Cl)cn3)cc2)nc2ccc(NC3COC3)cc21 [Compound 461]
- IC50 (human 5-LOX): < 1 µM
- EC50 [1]: < 10 µM
- EC50 (Rat whole blood (RWB)): < 10 µM

Structure (SMILES): Nc1ccc2nc(N3CCC3)n(CCOc3ccc(OC(F)(F)F)cc3)c2c1 [Compound 68]
- IC50 (human 5-LOX): < 1 µM
- EC50 [1]: < 10 µM
- EC50 (Rat whole blood (RWB)): > 20 µM

Structure (SMILES): CCn1c(NCc2ccc(Oc3ncc(Cl)cn3)cc2)nc2ccc(Nc3n[nH]c(C)c3Cl)cc21 [Compound 512]
- IC50 (human 5-LOX): < 1 µM
- EC50 [1]: < 10 µM
- EC50 (Rat whole blood (RWB)): < 10 µM

Structure (SMILES): CCn1c(NCc2ccc(Oc3ncc(Cl)cn3)cc2F)nc2ccc(Nc3cc(C)[nH]n3)cc21 [Compound 536]
- IC50 (human 5-LOX): < 1 µM
- EC50 [1]: < 10 µM
- EC50 (Rat whole blood (RWB)): < 10 µM

Structure (SMILES): Cn1c(NCc2ccc(Oc3ccc(Cl)cn3)cc2F)nc2ccc(NC3COC3)cc21 [Compound 273]
- IC50 (human 5-LOX): < 1 µM
- EC50 [1]: < 10 µM
- EC50 (Rat whole blood (RWB)): 10 to 20 µM

Structure (SMILES): N#CC1(Nc2ccc3[nH]c(NCc4ccc(Oc5ccc(Cl)cc5)cc4)nc3c2)CCC1 [Compound 137]
- IC50 (human 5-LOX): < 1 µM
- EC50 [1]: < 10 µM
- EC50 (Rat whole blood (RWB)): < 10 µM

Structure (SMILES): CC(C)(C)Nc1nc2cc(N)ccc2n1CCOc1ccc(OC(F)(F)F)cc1 [Compound 66]
- IC50 (human 5-LOX): < 1 µM
- EC50 [1]: < 10 µM
- EC50 (Rat whole blood (RWB)): > 20 µM

Structure (SMILES): Nc1ccc2nc(N3CCCC3)n(CCOc3ccc(OC(F)(F)F)cc3)c2c1 [Compound 51]
- IC50 (human 5-LOX): < 1 µM
- EC50 [1]: < 10 µM
- EC50 (Rat whole blood (RWB)): 10 to 20 µM

Structure (SMILES): Cn1c(NCc2ccc(Oc3ccncn3)cc2)nc2ccc(NC3COC3)cc21 [Compound 371]
- IC50 (human 5-LOX): < 1 µM
- EC50 [1]: 10 to 20 µM
- EC50 (Rat whole blood (RWB)): 10 to 20 µM

Structure (SMILES): Cc1cc(Nc2ccc3nc(NCc4ccc(Oc5ncc(Cl)cn5)cc4)n(C)c3c2)n[nH]1 [Compound 415]
- IC50 (human 5-LOX): < 1 µM
- EC50 [1]: < 10 µM
- EC50 (Rat whole blood (RWB)): < 10 µM

Structure (SMILES): Cn1ccc(Nc2ccc3nc(NCc4ccc(Oc5ccc(Cl)cn5)cc4)n(C)c3c2)n1 [Compound 413]
- IC50 (human 5-LOX): < 1 µM
- EC50 [1]: < 10 µM
- EC50 (Rat whole blood (RWB)): < 10 µM

Structure (SMILES): Cn1c(NCc2ccc(Oc3ccc(Cl)cn3)cc2)nc2ccc(Nc3cc[nH]n3)cc21 [Compound 449]
- IC50 (human 5-LOX): < 1 µM
- EC50 [1]: < 10 µM
- EC50 (Rat whole blood (RWB)): < 10 µM

Structure (SMILES): Nc1ccc2nc(N)n(Cc3ccc(Oc4ccc(OC(F)(F)F)cc4)cc3)c2c1 [Compound 245]
- IC50 (human 5-LOX): > 10 µM
- EC50 [1]: < 10 µM
- EC50 (Rat whole blood (RWB)): 10 to 20 µM

Structure (SMILES): COc1c(NC(C)c2ccc(Oc3ccc(OC(F)(F)F)cc3)cc2)ccc2[nH]c(N(C)C)nc12 (stereo not drawn) [Compound 191]
- IC50 (human 5-LOX): < 1 µM
- EC50 [1]: < 10 µM
- EC50 (Rat whole blood (RWB)): > 20 µM

Structure (SMILES): CN(C)c1nc2ccc(N3CCC(Oc4ccc(OC(F)(F)F)cc4)C3)cc2[nH]1 (stereo not drawn) [Compound 105]
- IC50 (human 5-LOX): < 1 µM
- EC50 [1]: < 10 µM
- EC50 (Rat whole blood (RWB)): > 20 µM

Structure (SMILES): Cc1cc(Nc2ccc3nc(NCc4ccc(Oc5ncc(Cl)cn5)cc4)[nH]c3c2)n[nH]1 [Compound 470]
- IC50 (human 5-LOX): < 1 µM
- EC50 [1]: < 10 µM
- EC50 (Rat whole blood (RWB)): < 10 µM

Structure (SMILES): Cc1cc(Nc2ccc3nc(NCc4ccc(Oc5ccc(Cl)cn5)cc4)n(C)c3c2)n[nH]1 [Compound 466]
- IC50 (human 5-LOX): < 1 µM
- EC50 [1]: < 10 µM
- EC50 (Rat whole blood (RWB)): < 10 µM

Source: patent publication US11447486B2, “2-amino-benzimidazole derivatives and their use as 5-lipoxygenase and/or prostaglandin E synthase inhibitors” (INSTITUT PASTEUR KOREA, priority 2014, dated 2022)
